This is an account of results in paper PMC9127186, “Molecular Basis Underlying Hepatobiliary and Renal Excretion of Phenolic Acids of Salvia miltiorrhiza Roots (Danshen)” (Frontiers in Pharmacology, 2022).

One data set concerns the target T1, rat Ntcp (Rattus norvegicus, UniProt P26435).
T1 sequence (P26435 1-362): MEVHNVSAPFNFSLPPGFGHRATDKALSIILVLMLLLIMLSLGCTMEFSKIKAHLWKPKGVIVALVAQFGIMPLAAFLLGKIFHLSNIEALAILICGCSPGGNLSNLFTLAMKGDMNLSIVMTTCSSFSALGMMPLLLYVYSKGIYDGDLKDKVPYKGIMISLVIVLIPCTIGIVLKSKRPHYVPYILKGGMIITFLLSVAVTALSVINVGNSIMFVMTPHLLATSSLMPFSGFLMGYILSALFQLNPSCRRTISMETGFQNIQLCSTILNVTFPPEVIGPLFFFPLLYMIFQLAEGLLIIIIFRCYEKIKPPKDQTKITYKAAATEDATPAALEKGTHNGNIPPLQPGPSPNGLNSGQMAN
The data set can be described thus: Cellular transport assay, HEK-293 cells expressing rat Ntcp. The following applies: Danshen phenolic acid at 100 μM final concentration, 10 min; rat Ntcp-transfected vs mock cells.

The target in a further data set is T2, rat Oct2 (Rattus norvegicus, UniProt Q9R0W2).
T2 sequence (Q9R0W2 1-555): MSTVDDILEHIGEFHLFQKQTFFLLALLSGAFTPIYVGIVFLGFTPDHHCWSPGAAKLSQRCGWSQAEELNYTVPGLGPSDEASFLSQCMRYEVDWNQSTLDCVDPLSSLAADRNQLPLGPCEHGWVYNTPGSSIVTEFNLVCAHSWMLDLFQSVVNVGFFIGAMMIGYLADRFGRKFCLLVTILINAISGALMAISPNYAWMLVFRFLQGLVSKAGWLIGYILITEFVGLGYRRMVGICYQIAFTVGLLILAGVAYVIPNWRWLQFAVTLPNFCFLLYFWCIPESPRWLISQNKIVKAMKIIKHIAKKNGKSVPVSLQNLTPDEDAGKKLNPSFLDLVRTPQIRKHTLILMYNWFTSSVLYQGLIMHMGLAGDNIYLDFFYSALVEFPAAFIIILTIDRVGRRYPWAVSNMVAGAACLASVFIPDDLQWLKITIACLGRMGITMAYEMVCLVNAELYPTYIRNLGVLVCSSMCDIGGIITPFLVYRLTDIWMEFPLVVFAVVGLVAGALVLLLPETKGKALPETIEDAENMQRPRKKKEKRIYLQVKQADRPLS
The data set can be described thus: Cellular transport assay, HEK-293 cells expressing rat Oct2. Conditions: Danshen phenolic acid at 100 μM final concentration, 10 min; rat Oct2-transfected vs mock cells.

For a further data set, the target named is T3, human OCT3 (Homo sapiens, UniProt O75751).
T3 sequence (O75751 1-556): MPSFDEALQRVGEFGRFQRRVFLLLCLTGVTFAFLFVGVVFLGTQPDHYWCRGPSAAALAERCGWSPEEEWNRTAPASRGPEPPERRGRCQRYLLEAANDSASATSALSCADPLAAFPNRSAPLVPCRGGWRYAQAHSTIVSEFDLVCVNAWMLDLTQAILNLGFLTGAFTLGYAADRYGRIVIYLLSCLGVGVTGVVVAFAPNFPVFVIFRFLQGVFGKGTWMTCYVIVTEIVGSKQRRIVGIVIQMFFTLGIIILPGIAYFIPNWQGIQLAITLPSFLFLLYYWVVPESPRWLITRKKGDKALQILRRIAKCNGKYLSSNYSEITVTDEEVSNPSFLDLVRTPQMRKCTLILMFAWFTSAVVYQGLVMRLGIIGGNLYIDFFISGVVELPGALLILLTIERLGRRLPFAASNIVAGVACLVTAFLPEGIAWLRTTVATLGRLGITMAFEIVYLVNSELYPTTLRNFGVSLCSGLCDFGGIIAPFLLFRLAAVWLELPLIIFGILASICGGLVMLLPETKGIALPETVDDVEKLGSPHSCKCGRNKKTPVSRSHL
The data set can be described thus: Cellular transport assay, HEK-293 cells expressing human OCT3. Conditions: Danshen phenolic acid at 100 μM final concentration, 10 min; human OCT3-transfected vs mock cells.

In the next data set the target is T4, rat Oatp1a1 (Rattus norvegicus, UniProt P46720).
T4 sequence (P46720 1-670): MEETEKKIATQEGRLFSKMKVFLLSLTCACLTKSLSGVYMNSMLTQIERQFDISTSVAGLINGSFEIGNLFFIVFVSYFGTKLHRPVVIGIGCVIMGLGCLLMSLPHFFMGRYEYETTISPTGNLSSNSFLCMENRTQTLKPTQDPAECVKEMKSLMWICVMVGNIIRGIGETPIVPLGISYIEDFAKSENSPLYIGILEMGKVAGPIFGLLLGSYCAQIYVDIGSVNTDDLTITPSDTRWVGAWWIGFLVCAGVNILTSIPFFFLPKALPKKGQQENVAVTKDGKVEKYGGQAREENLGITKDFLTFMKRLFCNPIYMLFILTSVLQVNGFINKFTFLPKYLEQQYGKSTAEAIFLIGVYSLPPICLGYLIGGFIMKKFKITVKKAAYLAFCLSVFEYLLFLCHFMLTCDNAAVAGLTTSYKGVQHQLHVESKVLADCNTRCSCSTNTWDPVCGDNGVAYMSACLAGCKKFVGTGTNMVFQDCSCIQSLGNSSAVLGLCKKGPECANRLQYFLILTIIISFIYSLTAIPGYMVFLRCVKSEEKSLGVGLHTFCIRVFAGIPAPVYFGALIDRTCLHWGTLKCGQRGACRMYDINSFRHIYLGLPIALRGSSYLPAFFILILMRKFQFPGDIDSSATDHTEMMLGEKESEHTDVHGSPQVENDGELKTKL
Briefly: Cellular transport assay, HEK-293 cells expressing rat Oatp1a1. The following applies: Danshen phenolic acid at 100 μM final concentration, 10 min; rat Oatp1a1-transfected vs mock cells.

For the compound `O=C(/C=C/c1ccc(O)c2c1[C@H](C(=O)O)[C@@H](c1ccc(O)c(O)c1)O2)O[C@H](Cc1ccc(O)c(O)c1)C(=O)O` [Lithospermic acid, lithospermic acid], the “TransportTC/TransportMC ratio (net transport ratio)” value (“TransportTC/TransportMC ratio” below) is listed as 1.71 ± 0.15 at rat Ntcp, 1.11 ± 0.32 at rat Oct2, 0.84 ± 0.15 at human OCT3 and 1.41 ± 0.67 at rat Oatp1a1.

In the case of `O=C(O)c1ccc(O)c(O)c1` [Protocatechuic acid, protocatechuic acid], the “TransportTC/TransportMC ratio” value on rat Ntcp was determined as 1.04 ± 0.27; at rat Oct2 it was 0.92 ± 0.08; at human OCT3, 0.94 ± 0.24; at rat Oatp1a1 it was 1.66 ± 0.77.

As to `O=C(/C=C/c1ccc(O)c(O)c1)O[C@H](Cc1ccc(O)c(O)c1)C(=O)O` [Rosmarinic acid, rosmarinic acid], the “TransportTC/TransportMC ratio” value on human OCT3 was determined as 0.75 ± 0.23.

Take `O=C(O)Cc1c(/C=C/C(=O)O[C@H](Cc2ccc(O)c(O)c2)C(=O)O)ccc(O)c1O` [Salvianolic acid D, salvianolic acid D]: the “TransportTC/TransportMC ratio” value on rat Ntcp is recorded as 1.49 ± 0.23; at rat Oct2 it was 1.44 ± 0.24; on human OCT3 it was 0.94 ± 0.32; at rat Oatp1a1, 2.45 ± 1.88.

With salvianolic acid B, the “TransportTC/TransportMC ratio” value amounted to 1.90 ± 0.02 on rat Ntcp, 1.08 ± 0.21 on rat Oct2, 0.75 ± 0.38 at human OCT3 and 1.91 ± 0.42 at rat Oatp1a1.
